Assay results from patent publication US20060122276A1, “Agent for inhibiting membrane virus reproduction, method for the production thereof, pharmaceutical composition and method for inhibiting viral infections” (priority 2003, published 2006).
Entries after “also recorded” stand apart in the source; their conditions may differ. Where two headings read alike, the source gives them in different places.

What was measured:
HIV-1 [1] = conditions: for Protection of MT-4 cells against viral cytopathic action of HIV-1: HIV-1 100 TCD50
Experimental: Cells Reinoculated humans lymphoblastoid cells MT-4 were used. […] The viability of the cells was determined from the color of a 0.4% solution of trypan blue.
Retrovir (azidothymidin) produced by GlaxoWellcome (Great Britain) was used as positive control.
The Antiviral activity of the preparations was investigated on a model of lymphoblastoid cells in a plastic 24-cell plate. The virus dose was 100 TCD50 (50% tissue cytopathic dose). […] The activity of the preparation was determined from the inhibition of the virus-induced cytopathic action (CPA) in the cell cultures and the virus antigen level in the culture fluid by immunoenzymatic analysis.

HIV-1 [2] = conditions: for Optical density: 6th day, values >0.086 are positive for HIV
Hep 2 cells [3] = experiment: Apoptosis signs in Hep 2 cells (DNA fragmentation, Fas-antigen mRNA forms); format: cell-based, human; conditions: for Redistribution of soluble and membrane Fas-antigen mRNA forms indicative of Fas-dependent apoptosis: 10, 50, 100 μg/ml
Excerpt: (§1) A reduction in the intensity of protein profiles was observed on the second day and most dramatically on the seventh day at the studied concentrations of the preparation as compared with control. This can be indicative of a reduction in the number of cells because of inhibition of the mitotic activity of cells in the presence of the preparation. On the 7th day of the action of the preparation a reduction in the number of DNA compared with control was observed. Checking for the presence of DNA fragmentation has shown its absence, i.e., apoptosis manifestations were not detected.
For establishing the influence of the preparation on intracellular biosynthetic processes, we have analyzed the synthesis and maturing in the Hep 2 cells of Fas-antigen mRNA. Fas-antigen is a receptor protein of the signal of programmed death of cells—apoptosis—and it can exist in two forms: in membrane form and in soluble form. It has been shown that in the presence of the preparation there occurs redistribution of the alternative forms of the Fas-antigen mRNA, this being indicative of the influence of the preparation on the biosynthetic processes in Hep 2 cells on the transcripton level; however, reconstructions indicative of the feasibility of Fas-dependent apoptosis are absent (FIG. 8).

[4] = test system: human embryo fibroblasts (M-21); experiment: Cytotoxic action on non-infected M-21 cells; format: cell-based; conditions: 500 and 1000 μg/ml; 3-days follow-up
[5] = test system: lymphoblastoid human cells MT-4; experiment: Cytotoxicity on non-infected human lymphoblastoid cells; format: cell-based; conditions: for Cytotoxic action of the preparation on cells: 1, 10 μg/ml and higher (to 100 μg/ml)
[6] = test system: porcine embryo kidney cells (SPEV); experiment: Cytotoxic properties on SPEV cell culture; format: cell-based; conditions: for Percentage of died cells on exposure with different concentrations of the preparation during 48 hours: SPEV
Experimental: Cultures of reinoculated porcine embryo kidney cells (SPEV), highly sensitive to the pathogenic action of HSV, obtained from “Narva” Company (Russia) were employed. These cultures were used in the form of a one day monolayer of cells, grown in 24-cell plastic plates. The cultures of SPEV cells were grown on medium 199 with 10% of fetal calf serum with addition of glutamine and antibiotics (100 U/ml).
For studying the antiviral activity of the preparation, the preparation was introduced in various concentrations into the SPEV cell cultures at the moment of infection and in 24 hours after the infection with hepatitis C virus on the cell in 24-cell plastic culture plates.

Hep 2 cells [7] = experiment: Proliferation of human epithelial carcinoma Hep 2 cells; format: cell-based
Experimental: In our experiments we used a 1 day culture of passage 14 Hep 2 cells—reinoculated cells of human epithelial carcinoma.
The growth medium contained DMEM+glutamine+antibiotics+5% FBS (fetal bovine serum). The supporting medium was DMEM/needle with a double kit of amino acids and vitamins+glutamine+antibiotics+10% of cattle serum.
The effect of such influence was most pronounced on the seventh day at the concentration of 100 μg/ml: there appeared discontinuities in the monolayer and there were many cell conglomerates in the culture medium.
The monolayer was removed from the glass plate in the 500 μl volume of the medium. The cells were precipitated from 200 μl, resuspended in a lysing buffer; electrophoresis of proteins was carried out in 12.5% PAAG with Kumashi staining.
as §1

[8] = 0.25 μg/ml, HIV-1-infected lymphoblastoid cells, 5th day
[9] = 0.5 μg/ml, HIV-1-infected lymphoblastoid cells, 5th day
[10] = 1 μg/ml, 2 hrs of contact, washing off of cells No, 6th day
[11] = 1 μg/ml, 2 hrs of contact, washing off of cells Yes, 6th day
[12] = 1.0 μg/ml, HIV-1-infected lymphoblastoid cells, 5th day
[13] = 1 μg/ml, exposure 1 hr, washing off of cells Yes, 6th day
[14] = 1 μg/ml, exposure 2 hrs, washing off of cells Yes, 6th day
[15] = 1 μg/ml, exposure 24 hrs, washing off of cells Yes, 6th day
[16] = 1 μg/ml, exposure during the entire experiment, washing off of cells No, 6th day
[17] = 10 μg/ml, 2 hrs of contact, washing off of cells No, 6th day
[18] = 10 μg/ml, 2 hrs of contact, washing off of cells Yes, 6th day
[19] = 10 μg/ml, HIV-1-infected lymphoblastoid cells, 5th day
[20] = 10 μg/ml, exposure 2 hrs (first such line, r25), washing off of cells Yes, 6th day
[21] = 10 μg/ml, exposure 2 hrs (second such line, r29), washing off of cells Yes, 6th day
[22] = 10 μg/ml, exposure 24 hrs, washing off of cells Yes, 6th day
[23] = 10 μg/ml, exposure during the entire experiment, washing off of cells No, 6th day
[24] = 100 μg/ml, HIV-1-infected lymphoblastoid cells, 5th day
[25] = preparation 1 hr after infecting, HIV-1
[26] = preparation 2 hrs before infecting, HIV-1
[27] = preparation + virus simultaneously, HIV-1

“sodium salt of fullerene-polyamino-caproic acid” was tested, and the “CPE/syncytia, %” value (HIV-1 [1]; [8]) was 50%, the “Number of cells in 1 ml × 1000” value (HIV-1 [1]; [8]) was 1000 in 1 ml × 1000 and the “CPE/syncytia, %” value (HIV-1 [1]; [9]) was 25%. For the same substance, the “Number of cells in 1 ml × 1000” value (HIV-1 [1]; [9]) was 1299 in 1 ml × 1000, the “CPE/syncytia, +” value (HIV-1 [1]; [10]) was 0 + and the “Number of cells × 10^3 ml” value (HIV-1 [1]; [10]) was 2200 × 10^3 ml. The “CPE/syncytia, +” value (HIV-1 [1]; 1 μg/ml, 2 hrs of contact, washing off of cells No, 8th day) was 0 +, the “CPE/syncytia, +” value (HIV-1 [1]; [11]) was 2.5+ and the “Number of cells × 10^3 ml” value (HIV-1 [1]; [11]) was 1700 × 10^3 ml. For the same substance, the “CPE/syncytia, +” value (HIV-1 [1]; 1 μg/ml, 2 hrs of contact, washing off of cells Yes, 8th day) was 3.5+, the “Protection of MT-4 cells against viral cytopathic action of HIV-1” value (HIV-1 [1]; 1 μg/ml) was “full protection” and the “Protection of MT-4 cells against viral cytopathic action of HIV-1” value (HIV-1 [1]; 1 μg/ml, listed as sodium salt of fullerene-polyamino-propanoic acid) was “Full protection”. For the same substance, the “CPE/syncytia, %” value (HIV-1 [1]; [12]) was 0%, the “Number of cells in 1 ml × 1000” value (HIV-1 [1]; [12]) was 1466 in 1 ml × 1000 and the “CPE/syncytia, +” value (HIV-1 [1]; [13]) was 0.5+. For the same substance, the “Number of cells × 10^3 ml” value (HIV-1 [1]; [13]) was 2000 × 10^3 ml, the “CPE/syncytia, +” value (HIV-1 [1]; 1 μg/ml, exposure 1 hr, washing off of cells Yes, 8th day) was 1.5+ and the “CPE/syncytia, +” value (HIV-1 [1]; [14]) was 0.5+. The “Number of cells × 10^3 ml” value (HIV-1 [1]; [14]) was 1700 × 10^3 ml, the “CPE/syncytia, +” value (HIV-1 [1]; 1 μg/ml, exposure 2 hrs, washing off of cells Yes, 8th day) was 1+ and the “CPE/syncytia, +” value (HIV-1 [1]; [15]) was 0.1+. For the same substance, the “Number of cells × 10^3 ml” value (HIV-1 [1]; [15]) was 2100 × 10^3 ml, the “CPE/syncytia, +” value (HIV-1 [1]; 1 μg/ml, exposure 24 hrs, washing off of cells Yes, 8th day) was 0.5+ and the “CPE/syncytia, +” value (HIV-1 [1]; [16]) was 0 +. The “Number of cells × 10^3 ml” value (HIV-1 [1]; [16]) was 2300 × 10^3 ml, the “CPE/syncytia, +” value (HIV-1 [1]; 1 μg/ml, exposure during the entire experiment, washing off of cells No, 8th day) was 0 + and the “CPE/syncytia, +” value (HIV-1 [1]; [17]) was 0 +. For the same substance, the “Number of cells × 10^3 ml” value (HIV-1 [1]; [17]) was 2600 × 10^3 ml, the “CPE/syncytia, +” value (HIV-1 [1]; 10 μg/ml, 2 hrs of contact, washing off of cells No, 8th day) was 0 + and the “CPE/syncytia, +” value (HIV-1 [1]; [18]) was 1.75+. For the same substance, the “Number of cells × 10^3 ml” value (HIV-1 [1]; [18]) was 1500 × 10^3 ml, the “CPE/syncytia, +” value (HIV-1 [1]; 10 μg/ml, 2 hrs of contact, washing off of cells Yes, 8th day) was 3.0+ and the “CPE/syncytia, %” value (HIV-1 [1]; [19]) was 0%. For the same substance, the “Number of cells in 1 ml × 1000” value (HIV-1 [1]; [19]) was 1633 in 1 ml × 1000, the “CPE/syncytia, +” value (HIV-1 [1]; [20]) was 0 + and the “Number of cells × 10^3 ml” value (HIV-1 [1]; [20]) was 2300 × 10^3 ml. The “CPE/syncytia, +” value (HIV-1 [1]; 10 μg/ml, exposure 2 hrs (first such line, r25), washing off of cells Yes, 8th day) was 0 +, the “CPE/syncytia, +” value (HIV-1 [1]; [21]) was 0 + and the “Number of cells × 10^3 ml” value (HIV-1 [1]; [21]) was 1800 × 10^3 ml. The “CPE/syncytia, +” value (HIV-1 [1]; 10 μg/ml, exposure 2 hrs (second such line, r29), washing off of cells Yes, 8th day) was 0 +, the “CPE/syncytia, +” value (HIV-1 [1]; [22]) was 0 + and the “Number of cells × 10^3 ml” value (HIV-1 [1]; [22]) was 2300 × 10^3 ml. The “CPE/syncytia, +” value (HIV-1 [1]; 10 μg/ml, exposure 24 hrs, washing off of cells Yes, 8th day) was 0 +, the “CPE/syncytia, +” value (HIV-1 [1]; [23]) was 0 + and the “Number of cells × 10^3 ml” value (HIV-1 [1]; [23]) was 2500 × 10^3 ml. The “CPE/syncytia, +” value (HIV-1 [1]; 10 μg/ml, exposure during the entire experiment, washing off of cells No, 8th day) was 0 +, the “CPE/syncytia, %” value (HIV-1 [1]; [24]) was 0% and the “Number of cells in 1 ml × 1000” value (HIV-1 [1]; [24]) was 1500 in 1 ml × 1000. For the same substance, the “CPE/syncytia, %” value (HIV-1 [1]; [25]) was 0%, the “Number of cells in 1 ml × 1000” value (HIV-1 [1]; [25]) was 1100 in 1 ml × 1000 and the “CPE/syncytia, %” value (HIV-1 [1]; [26]) was 0%. The “Number of cells in 1 ml × 1000” value (HIV-1 [1]; [26]) was 1100 in 1 ml × 1000, the “CPE/syncytia, %” value (HIV-1 [1]; [27]) was 0% and the “Number of cells in 1 ml × 1000” value (HIV-1 [1]; [27]) was 1100 in 1 ml × 1000. The Optical density (HIV-1 [2]; 0.5 μg/ml) was 2.147, the Optical density (HIV-1 [2]; 1.0 μg/ml) was 0.165 and the Optical density (HIV-1 [2]; 10 μg/ml) was 0.074. For the same substance, the “Virus in the culture medium” value (HIV-1 [2]; 10 μg/ml, HIV-1) was “not detected”, the “DNA fragmentation (apoptosis manifestations)” value (Hep 2 cells [3]) was “not recorded” and the “Redistribution of soluble and membrane Fas-antigen mRNA forms indicative of Fas-dependent apoptosis” value (Hep 2 cells [3]) was “no redistribution”. For the same substance, the “Redistribution of soluble and membrane Fas-antigen mRNA forms indicative of Fas-dependent apoptosis” value (Hep 2 cells [3]; listed as preparation) was “absent”, the “DNA fragmentation (apoptosis manifestations)” value (Hep 2 cells [3]; listed as preparation) was “absence” and the “Cytodestructive action on non-infected M-21 cells” value [4] was “has not revealed cytodestructive action”. For the same substance, the “Viability of cells, %” value ([5]; 100 μg/ml, non-infected human lymphoblastoid cells (cell control 93)) was 85%, the “Number of cells in 1 ml × 1000” value ([5]; 100 μg/ml, non-infected human lymphoblastoid cells (cell control 966)) was 866 in 1 ml × 1000 and the “Cytotoxic action of the preparation on cells” value [5] was “no cytotoxic action”. For the same substance, the “Cytotoxic action of the preparation on cells” value ([5]; listed as sodium salt of fullerene-polyamino-propanoic acid) was “not detected”, the “Percentage of died cells on exposure with different concentrations of the preparation during 48 hours” value ([6]; 6.25 (in μg)) was 0% and the “Percentage of died cells on exposure with different concentrations of the preparation during 48 hours” value ([6]; 12.5 (in μg)) was 0%. The “Percentage of died cells on exposure with different concentrations of the preparation during 48 hours” value ([6]; 25 (in μg)) was 0%, the “Percentage of died cells on exposure with different concentrations of the preparation during 48 hours” value ([6]; 50 (in μg)) was 0% and the “Percentage of died cells on exposure with different concentrations of the preparation during 48 hours” value ([6]; 100 (in μg)) was 0%. For the same substance, the “Cytotoxic properties for SPEV cell cultures” value ([6]; concentration of up to 100 μg/ml) was “does not have cytotoxic properties”, the “Number of DNA compared with control” value (Hep 2 cells [7]; 7th day) was “reduction” and the “Proliferation of Hep 2 cells (monolayer formation)” value (Hep 2 cells [7]; 10, 50 and 100 μg/ml, most pronounced at 100 μg/ml) was “pronounced inhibition; also recorded: inhibits the formation of a monolayer”. The “Intensity of protein profiles compared with control” value (Hep 2 cells [7]; second day and most dramatically seventh day, 10, 50 and 100 μg/ml) was “reduction”.
